Here are results for 47 compounds from PubChem BioAssay AID1508612.

SMILES strings stand for the structures.

The nature of this data set: passive permeability, PAMPA, ADME assay (AID 1508612). Particulars: pH 7.4, 30.0 min, 50.0 µM.
The Papp is a coefficient for how fast a substance crosses the barrier. Read a high Papp as fast passage. Take `Cc1cc(N2CCN(c3ccccc3)CC2)nc(-n2nc(C)cc2C)n1`: the Papp was above 1000 ×10⁻⁶ cm/s.

Regarding `Cc1cc(N)c2cc(NC(=O)Nc3ccc4nc(C)cc(N)c4c3)ccc2n1`, the Papp was below 1 ×10⁻⁶ cm/s.

`Fc1cccc(F)c1Nc1nc(-c2ccncc2)nc2ccccc12` showed an apparent permeability coefficient (Papp) above 1000 ×10⁻⁶ cm/s.

Turning to `Cc1ccc(-c2ccnc(N3CCC(C(N)=O)CC3)n2)cc1`, the Papp came out at 577 ×10⁻⁶ cm/s.

Regarding `Clc1cccc(-c2ccc(-c3nnc(CCCc4ccc5cccnc5n4)o3)cc2)c1`, the apparent permeability (Papp) is above 1000 ×10⁻⁶ cm/s.

In turn, `O=C(Nc1ccc(Cl)c(S(=O)(=O)N2CCOCC2)c1)c1ccc(S(=O)(=O)N2CCOCC2)cc1` returned a Papp of 936 ×10⁻⁶ cm/s.

Regarding `Clc1ccc(C2(c3ccc(-c4cn[nH]c4)cc3)CCNCC2)cc1`, the Papp was 40.5 ×10⁻⁶ cm/s.

For `CC(C)=CCNc1ncnc2nc[nH]c12`, the Papp turned out to be 54.1 ×10⁻⁶ cm/s.

Regarding `CN(C)C(=O)c1ccc(-c2cc[nH]c(=O)c2N)cc1`, the Papp was 12.1 ×10⁻⁶ cm/s.

Turning to `COc1ccc(-c2nc3sc(CCNC(=O)C(C)(C)C)c(C)n3n2)cc1`, the apparent permeability coefficient (Papp) was 214 ×10⁻⁶ cm/s.

In turn, `O=C(CCCN1CCC2(CC1)C(=O)N(Cc1cccc(F)c1)CN2c1ccccc1)c1ccc(F)cc1` showed a Papp of 21 ×10⁻⁶ cm/s.

`Ic1ccccc1CNC1C2CCN(CC2)C1C(c1ccccc1)c1ccccc1` (configuration not stated): the Papp is above 1000 ×10⁻⁶ cm/s.

On to `CCOc1ccccc1N(CC(=O)Nc1cc(OC)ccc1OC)S(=O)(=O)c1ccccc1`, for which the Papp was determined as 968 ×10⁻⁶ cm/s.

For the compound `O=C(NCc1ccc(N2CCCC2)nc1)c1cc(Cl)ccc1O`, the Papp is above 1000 ×10⁻⁶ cm/s.

`CS(=O)(=O)c1ccccc1-c1csc(N2CCC(C(N)=O)CC2)n1` showed a Papp of 11.9 ×10⁻⁶ cm/s.

For `CSc1ccc(C(=O)c2[nH]c(=O)[nH]c2C)cc1`, the Papp came to 28.7 ×10⁻⁶ cm/s.

`CCNC(=O)N1CCCN(c2ccc(C(=O)NCCc3ccc(Cl)cc3Cl)cc2NC(=O)c2cccc(Cl)c2)CC1` yielded a Papp of 202 ×10⁻⁶ cm/s.

`COc1cc(Nc2nc(-c3ccncc3)nc3ccccc23)ccc1N1CCN(C)CC1` yielded a Papp above 1000 ×10⁻⁶ cm/s.

Consider `COc1ccc(CCNC(=O)Cn2c(=O)c3cccn3c3ccc(F)cc32)cc1OC`, for which the apparent permeability (Papp) is 442 ×10⁻⁶ cm/s.

Compound `CC(=O)c1ccc(N2CCN(C(=O)c3ccc4c(c3)CC(=O)N4)CC2)cc1` came in with an apparent permeability (Papp) of 40.5 ×10⁻⁶ cm/s.

As to `CC(C)(C)n1cnc2cc(C(=O)N3CCCCC3)ccc21`, the Papp amounted to 106 ×10⁻⁶ cm/s.

Regarding `O=C(Nc1ccccc1)C1CCN(c2ncc(-c3ccc4c(c3)OCCCO4)s2)CC1`, the Papp was 917 ×10⁻⁶ cm/s.

`O=C1Nc2cc(Cl)ccc2/C1=C\c1cc(Cl)c(O)c(Cl)c1` displayed a Papp of 78 ×10⁻⁶ cm/s.

Take `CC(C)n1cc(-c2ccc3c(c2)N(C)CC3)c2c(NS(=O)(=O)c3ccn(C)n3)ccnc21`: the Papp is above 1000 ×10⁻⁶ cm/s.

In turn, `CN(C)c1cccc(-c2nc(N3CCC(C(N)=O)CC3)ncc2F)c1` yielded a Papp of 780 ×10⁻⁶ cm/s.

The compound `Cc1cc(-c2nnc3n2CCCCC3)c(C)n1-c1ccncc1` showed a Papp of 24.5 ×10⁻⁶ cm/s.

Compound `NC(=O)c1ccc(-c2nc3c([nH]2)CN(C(=O)CN2CCOCC2)CC3)cc1` had a Papp of 2.6 ×10⁻⁶ cm/s.

`Cc1ccc(S(=O)(=O)Nc2cc(C(=O)Nc3nc(-c4ccccc4)cs3)ccn2)cc1`: the Papp worked out at 259 ×10⁻⁶ cm/s.

In turn, `Cc1cccc(-c2csc(N3CCC(C(N)=O)CC3)n2)c1` returned an apparent permeability coefficient (Papp) of 475 ×10⁻⁶ cm/s.

The compound `COc1ccc(Cl)cc1C(=O)Nc1ccc(NC(=O)c2ccco2)cc1` displayed an apparent permeability coefficient (Papp) of 971 ×10⁻⁶ cm/s.

Turning to `NC(=O)COCCN1CCN(C(c2ccccc2)c2ccc(Cl)cc2)CC1` (configuration not stated), the Papp worked out at 359 ×10⁻⁶ cm/s.

As for `CN(C)c1cccc(-c2ncnc(N3CCC(C(N)=O)CC3)n2)c1`, the Papp amounted to 244 ×10⁻⁶ cm/s.

The compound `Cc1ccc(S(=O)(=O)Nc2cnccc2C(=O)Nc2nc(-c3cc(Br)cs3)cs2)cc1` yielded a Papp of 9.1 ×10⁻⁶ cm/s.

The compound `CN(C)S(=O)(=O)c1cccc(NC(=O)c2ccc[nH]2)c1` came in with a Papp of 179 ×10⁻⁶ cm/s.

In turn, `COC12C(COC(N)=O)C3=C(C(=O)C(C)=C(N)C3=O)N1CC1C2N1C` (configuration not stated) displayed a Papp of 1.95 ×10⁻⁶ cm/s.

Regarding `COc1ccccc1S(=O)(=O)Nc1cnccc1C(=O)Nc1nc(-c2ccccc2)cs1`, the Papp was 387 ×10⁻⁶ cm/s.

Compound `Clc1ccccc1-c1nnc2sc(-c3ccc4c(c3)OCO4)nn12` showed a Papp of 958 ×10⁻⁶ cm/s.

On to `CCCc1oc2ccc(NS(=O)(=O)c3ccc(OC)cc3)cc2c1C(=O)OCC`, for which the Papp was below 1 ×10⁻⁶ cm/s.

As for `C[C@@H](c1ccc2nccn2c1)n1nnc2ncc(-c3cnn(C)c3)nc21`, the Papp turned out to be 40.7 ×10⁻⁶ cm/s.

The compound `CC(C)(C)c1ccc(C(=O)Nc2ccc3c(c2)CCCN3C(=O)c2cccs2)cc1` showed a Papp of 181 ×10⁻⁶ cm/s.

As to `COc1ccccc1Nc1ccnc(N2CCN(C(=O)c3ccccc3Cl)CC2)n1`, the Papp was determined as 173 ×10⁻⁶ cm/s.

Consider `Cc1ccccc1C(=O)N1CCc2cc(-c3nc(NC(=O)Cc4ccc5c(c4)OCCO5)sc3C)ccc21`, for which the apparent permeability (Papp) was found to be 761 ×10⁻⁶ cm/s.

For `COc1ccc(-c2ccc3nc(-c4ccccc4C)oc3c2)c(OC)c1OC`, the Papp was below 1 ×10⁻⁶ cm/s.

As for `O=C(Cc1cccs1)NCc1nnc2ccc(-c3ccccc3)nn12`, the Papp came out at 226 ×10⁻⁶ cm/s.

`CC(=O)c1sc(NC(=O)c2ccco2)nc1-c1ccccc1`: the Papp is 752 ×10⁻⁶ cm/s.

Compound `Cc1ccc(S(=O)(=O)Nc2cnccc2C(=O)Nc2nc(-c3ccco3)cs2)cc1` registered a Papp of 297 ×10⁻⁶ cm/s.

On to `CCOC(=O)c1ccc(N2C(=O)c3n[nH]c(-c4ccco4)c3C2c2ccc(C)cc2)cc1` (configuration not stated), for which the Papp amounted to 6.34 ×10⁻⁶ cm/s.
